Converted amounts (≈) assume the structure as drawn.
Tests used:
Candida albicans = test: Percent inhibition rate of 100 ug/mL against chitin synthase isolated from Candida albicans.
[1] = Inhibition of chitin synthase isolated from Candida Albicans.

Row | Rate (Candida albicans) [%] | IC50 [1] [µg/mL] | SMILES
1 | 99 | 4.69 (≈ 9.68 µM) | N[C@@H](Cc1cccc2ccccc12)C(=O)N[C@H](C(=O)O)[C@H]1O[C@@H](n2ccc(=O)[nH]c2=O)[C@H](O)C1O (single isomer, unassigned)
2 | 100 | 4.91 (≈ 9.36 µM) | CC(C)(SCc1cccc(O)c1)[C@H](N)C(=O)N[C@H](C(=O)O)[C@H]1O[C@@H](n2ccc(=O)[nH]c2=O)[C@H](O)C1O (single isomer, unassigned)
3 | 99 | 0.31 (≈ 0.58 µM) | N[C@@H](Cc1cc2ccccc2c2ccccc12)C(=O)N[C@H](C(=O)O)[C@H]1O[C@@H](n2ccc(=O)[nH]c2=O)[C@H](O)C1O (single isomer, unassigned)
4 | 67 |  | N[C@@H](CSCC1CCCCC1)C(=O)N[C@H](C(=O)O)[C@H]1O[C@@H](n2ccc(=O)[nH]c2=O)[C@H](O)C1O (single isomer, unassigned)
5 | 73 | 36 (≈ 74.5 µM) | N[C@@H](CSc1ccc(O)cn1)C(=O)N[C@H](C(=O)O)[C@H]1O[C@@H](n2ccc(=O)[nH]c2=O)[C@H](O)C1O (single isomer, unassigned)
6 | 34 |  | N[C@@H](Cc1ccc(O)cn1)C(=O)N[C@H](C(=O)O)[C@H]1O[C@@H](n2ccc(=O)[nH]c2=O)[C@H](O)C1O (single isomer, unassigned)
7 | 22 |  | CC(C)=CCC/C(C)=C/CSC[C@H](N)C(=O)N[C@H](C(=O)O)[C@H]1O[C@@H](n2ccc(=O)[nH]c2=O)[C@H](O)C1O (single isomer, unassigned)
8 | 99 | 5.89 (≈ 11.2 µM) | CC(C)(SCc1ccc(O)cc1)[C@H](N)C(=O)N[C@H](C(=O)O)[C@H]1O[C@@H](n2ccc(=O)[nH]c2=O)[C@H](O)C1O (single isomer, unassigned)
9 | 97 | 9.83 (≈ 19.3 µM) | CC(C)(SCc1ccccc1)[C@H](N)C(=O)N[C@H](C(=O)O)[C@H]1O[C@@H](n2ccc(=O)[nH]c2=O)[C@H](O)C1O (single isomer, unassigned)
10 | 94 | 1.42 (≈ 2.54 µM) | CC(C)(SCc1ccc2ccccc2c1)[C@H](N)C(=O)N[C@H](C(=O)O)[C@H]1O[C@@H](n2ccc(=O)[nH]c2=O)[C@H](O)C1O (single isomer, unassigned)
11 | 64 |  | CCCCCCCCCCCCSC[C@H](N)C(=O)N[C@H](C(=O)O)[C@H]1O[C@@H](n2ccc(=O)[nH]c2=O)[C@H](O)C1O (single isomer, unassigned)
12 | 42 |  | Nc1ccc(SC[C@H](N)C(=O)N[C@H](C(=O)O)[C@H]2O[C@@H](n3ccc(=O)[nH]c3=O)[C@H](O)C2O)nc1 (single isomer, unassigned)
13 | 64 | 52.5 (≈ 103 µM) | N[C@@H](CSc1ccc(C(=O)O)cn1)C(=O)N[C@H](C(=O)O)[C@H]1O[C@@H](n2ccc(=O)[nH]c2=O)[C@H](O)C1O (single isomer, unassigned)
14 | 82 | 19.8 (≈ 45.5 µM) | N[C@@H](Cc1cccnc1)C(=O)N[C@H](C(=O)O)[C@H]1O[C@@H](n2ccc(=O)[nH]c2=O)[C@H](O)C1O (single isomer, unassigned)
15 | 78 |  | N[C@@H](CSCc1ccccc1)C(=O)N[C@H](C(=O)O)[C@H]1O[C@@H](n2ccc(=O)[nH]c2=O)[C@H](O)C1O (single isomer, unassigned)
16 | 99 | 4.83 (≈ 10.7 µM) | N[C@@H](Cc1ccc(O)cc1)C(=O)N[C@H](C(=O)O)[C@H]1O[C@@H](n2ccc(=O)[nH]c2=O)[C@H](O)C1O (single isomer, unassigned)
17 | 88 | 13.8 (≈ 26.3 µM) | CC(C)(SCc1ccccc1O)[C@H](N)C(=O)N[C@H](C(=O)O)[C@H]1O[C@@H](n2ccc(=O)[nH]c2=O)[C@H](O)C1O (single isomer, unassigned)
18 | 40 |  | N[C@@H](CSc1ccc2ccccc2c1)C(=O)N[C@H](C(=O)O)[C@H]1O[C@@H](n2ccc(=O)[nH]c2=O)[C@H](O)C1O (single isomer, unassigned)
19 | 44 |  | N[C@@H](CSc1ccc(O)cc1)C(=O)N[C@H](C(=O)O)[C@H]1O[C@@H](n2ccc(=O)[nH]c2=O)[C@H](O)C1O (single isomer, unassigned)
20 | 96 | 6.43 (≈ 13.3 µM) | N[C@@H](Cc1ccc2ccccc2c1)C(=O)N[C@H](C(=O)O)[C@H]1O[C@@H](n2ccc(=O)[nH]c2=O)[C@H](O)C1O (single isomer, unassigned)
21 | 58 |  | CC(C)(SCc1ccc(O)cn1)[C@H](N)C(=O)N[C@H](C(=O)O)[C@H]1O[C@@H](n2ccc(=O)[nH]c2=O)[C@H](O)C1O (single isomer, unassigned)
22 |  | 0.393 (≈ 0.793 µM) | C[C@@H]([C@H](N)C(=O)N[C@H](C(=O)O)[C@H]1O[C@@H](n2ccc(=O)[nH]c2=O)[C@H](O)C1O)[C@H](O)c1ccc(O)cn1 (single isomer, unassigned) [NIKKOMYCIN]
23 | 65 |  | CC(=O)NCSC[C@H](N)C(=O)N[C@H](C(=O)O)[C@H]1O[C@@H](n2ccc(=O)[nH]c2=O)[C@H](O)C1O (single isomer, unassigned)
24 | 48 |  | N[C@@H](CSc1ccccn1)C(=O)N[C@H](C(=O)O)[C@H]1O[C@@H](n2ccc(=O)[nH]c2=O)[C@H](O)C1O (single isomer, unassigned)
